Here are results for one compound from patent US20040180917A1, “Novel tricyclic dihydro-quinoline derivatives, method for preparing same and pharmaceutical compositions containing the same” (priority 2001, published 2004).

pIC50: −log10 of the molar value.

The test system of the data set is L1210. The data set is described as follows: In vitro cytotoxicity, Microculture Tetrazolium Assay, L1210. As to conditions: L1210 murine leukaemia, incubated for 2 days; read-out: IC50 (concentration of cytotoxic agent which inhibits proliferation of the treated cells by 50%). The format is cell-based. On the procedure: Three cell lines were used:
The cells are cultured in RPMI 1640 complete culture medium containing 10% foetal calf serum, 2 mM glutamine, 50 units/ml of penicillin, 50 μg/ml of streptomycin and 10 mM Hepes, pH=7.4. The cells are distributed on microplates and are exposed to the cytotoxic compounds. The cells are then incubated for 2 days (L1210) or 4 days (A549, HT29). The number of viable cells is then quantified by a colorimetric assay, the Microculture Tetrazolium Assay (Cancer Res. 1987, 47, 939-942).

Take `COc1cc(C2C3=C(COC3=O)Nc3c2ccc2ccc(O)cc32)cc(OC)c1OC` (stereo not shown) [Example 4]: the pIC50 is 8.15.
